Test results as given in patent publication US20220096592A1, “PIC1 VARIANTS WITH IMPROVED SOLUBILITY AND METHODS OF USING THE SAME” (priority 2019, published 2022).
Entries after “also recorded” stand apart in the source; their conditions may differ.

Assays:
C5a generation = assay: C5a ELISA of supernatant, antibody-sensitized human platelets in normal human serum; format: cell-based
Description: For experiments sensitizing platelets with human anti-platelet antibody, purified platelets were treated with 4% ITP sera for 15 minutes at 30° C. before adding 2% normal human complement sufficient sera and incubating for 30 minutes at 37° C. For samples containing PIC1, sera and PIC1 were pre-incubated for 5 minutes before combining with sensitized platelets. Samples were then spun and supernatant was removed for C5a analysis by ELISA. A C5a ELISA kit (R&D Systems) was used per manufacturer's instructions. The cells were washed once with GVBS^−− and once with water to lyse the platelets. The remaining cell pellet was treated with 25 mM methylamine for 1 hour at 37° C., spun, and the supernatant was analyzed for iC3b by ELISA. The ELISA for iC3b was performed as previously described, utilizing a goat anti-human C3 antibody (Complement Technology, Tyler, Tex.) for capture, a mouse anti-human iC3b antibody (Quidel, San Diego, Calif.) for probing, and a goat anti-mouse HRP (Sigma-Aldrich, St Louis, Mo.) for detection.
Plasma recovered from these experiments was then assayed for the pro-inflammatory anaphylatoxin C5a by ELISA.

[1] = tested on: complement-mediated hemolysis of the patient's erythrocytes; assay: hemolytic complement assay with plasma and erythrocytes of a DHTR patient; format: cell-based, human; details: complement permissive buffer GVBS++, increasing concentrations, FIG. 13; listed as PIC1
Description: Discarded de-identified blood was obtained from routine medical management blood draws from the patient prior to treatment with eculizumab. […] Complement permissive GVBS^++ buffer is veronal-buffered saline with 0.1% gelatin, 0.15 mM CaCl2, and 1 mM MgCl2 [11]. Complement inhibitory buffer GVBS^−− is a veronal-buffered saline with 0.1% gelatin and 10 mM EDTA. Approximately 5×10^7 washed erythrocytes were incubated with 20% plasma in a reaction volume of 0.15 ml for 1 hour at 37° C.
Erythrocytes were sedimented by centrifugation at 1,500×g for 5 minutes and the supernatant was then recovered. The supernatant was measured on a Bio Tek Synergy HT plate reader spectrophotometer for absorption at 412 nm. Hemolysis was measured by quantitation of free hemoglobin on the spectrophotometer at 412 nm.

[2] = tested on: purified human neutrophils; assay: NETosis assay (immune complex activated serum and H2O2; PicoGreen free DNA, fluorescence microscopy); format: cell-based; details: neutrophils stimulated with immune complexes, FIG. 5B third row
Description: NETosis assays with immune complexes were performed as previously described. Briefly, normal human serum was stimulated with ovalbumin-antiovalbumin immune complexes in GVBS^++ for 30 minutes at 37° C. This mixture along with 0.05% H2O2 was then added to purified human neutrophils resuspended in RPMI with or without sarcosine variants (2 mM), allowing NETosis to occur. Quantitation of free DNA released from the neutrophils was performed using PicoGreen. Slides were stained with DAPI (Southern Biotech, Birmingham, Ala.). The following antibodies were used to visualize formation of NETs: • (i) mouse anti-elastase (Invitrogen, Carlsbad, Calif.) as a primary antibody with the secondary goat anti-mouse antibody Alexa Fluor 568 (Novus Biologicals, Centennial, Colo.) and • (ii) rabbit anti-histone H3 (Abcam, Cambridge Mass.) with goat anti-rabbit antibody Alexa Fluor 488 (Novus Biologicals). Fluorescence microscopy using an Olympus BX53 microscope was performed to visualize NETs.
The peptide variants were tested for inhibition of NETosis. In this assay, purified human neutrophils were stimulated with normal human serum activated with ovalbumin-antiovalbumin immune complexes and hydrogen peroxide. Free DNA expressed from the neutrophils was then measured in a PicoGreen assay. […] Direct visualization of neutrophil extracellular trap (NET) formation by fluorescence microscopy was used to confirm the above NETosis results with the 18 variant. Human neutrophils were purified and stimulated on glass slides then stained with DAPI to visualize DNA and probed with anti-neutrophil elastase (αNE) and anti-histone H3 (αhistone), as previously described. […] Fluorescence microscopy visualization of NETs confirmed the findings seen for quantitative measurements of free DNA.

## H2N-IALILEPICCQERAA-dPEG24 (H-IALILEPICCQERAA-dPEG24; cysteine pairing not given here) [PA-dPEG24, 15-amino acid PEGylated peptide, 24 PEG moieties at the C-terminus]
C5a generation; 1.5 mM, P=0.028
  inhibition of C5a generation, in words: Significant inhibition of C5a generation
C5a generation; 3.0 mM, P=0.006
  decrease of C5a generation: 44%
C5a generation; sensitizing antibody and NHS, increasing concentrations, FIG. 6B
  C5a generation, dose response: dose-dependently inhibited C5a generation
[1]
  hemolysis of patient erythrocytes by patient plasma: statistically significant dose-dependent decrease of hemolysis; also recorded: inhibited hemolysis to the background signal; also recorded: completely blocked at higher doses
[2]
  NET formation by fluorescence microscopy: dramatic reduction in NETs
